What follows are compounds tested against T1, LPA1 (Homo sapiens, UniProt Q92633) (assay: LPA1 calcium flux assay (LPA1 functional antagonist assay)). Conditions: PathHunter CHO-K1 EDG2 β-Arrestin cell line; calcium indicator dye; stimulated with EC80 concentration of LPA; FLIPR Tetra.
T1 construct: ProLink (PK) beta-galactosidase enzyme-fragment tag; host or cells: CHO-K1
Type: cell-based
Summary of the method: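 The LPA1 antagonist readout was intracellular calcium flux, and IC50 values were calculated from it. Plates stood 30 min at RT after compound addition. Cells, grown overnight, had first taken up calcium dye over 45 min at 37 °C.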

T1 sequence (Q92633 whole entry, the tested form may be a part): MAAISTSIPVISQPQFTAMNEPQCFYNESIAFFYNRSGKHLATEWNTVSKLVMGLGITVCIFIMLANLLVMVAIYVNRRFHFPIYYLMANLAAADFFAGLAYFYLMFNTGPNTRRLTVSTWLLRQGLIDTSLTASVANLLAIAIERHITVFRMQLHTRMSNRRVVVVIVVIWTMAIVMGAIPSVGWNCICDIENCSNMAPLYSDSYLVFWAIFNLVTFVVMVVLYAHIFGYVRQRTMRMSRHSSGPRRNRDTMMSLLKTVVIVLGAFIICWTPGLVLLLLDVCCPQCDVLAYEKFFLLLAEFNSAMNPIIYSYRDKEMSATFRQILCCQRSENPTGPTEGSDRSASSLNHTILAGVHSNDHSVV

Row | SMILES | IC50 [nM]
1 | Cc1nc(-c2nnn(C)c2Cn2ccn(CC3CC3)c2=O)ccc1N1C[C@@H](CC(=O)O)CC(F)(F)C1 [Example 72, (S)-2-(1-(6-(5-((3-(cyclopropylmethyl)-2-oxo-2,3-dihydro-1H-imidazol-1-yl)methyl)-1-methyl-1H-1,2,3-triazol-4-yl)-2-methylpyridin-3-yl)-5,5-difluoropiperidin-3-yl)acetic acid] | > 5000
2 | CCCc1ccc(=O)n(Cc2c(-c3ccc(N4C[C@H](F)C[C@@H](CC(=O)O)C4)c(CC)n3)nnn2C)c1 (single isomer, unassigned) [Example 46, 2-((3R,5R) or (33,5S)-1-(2-ethyl-6-(1-methyl-5-((2-oxo-5-propylpyridin-1(2H)-yl)methyl)-1H-1,2,3-triazol-4-yl)pyridin-3-yl)-5-fluoropiperidin-3-yl)acetic acid] | > 5000
3 | CCc1nc(-c2nnn(C)c2CN2C[C@H](CC3CC3)OC2=O)ccc1N1C[C@H](CC(=O)O)CC(F)(F)C1 (stereo in doubt) [Example 69, 2-((R)-1-(6-(5-(((S)-5-(cyclopropylmethyl)-2-oxooxazolidin-3-yl)methyl)-1-methyl-1H-1,2,3-triazol-4-yl)-2-ethylpyridin-3-yl)-5,5-difluoropiperidin-3-yl)acetic acid] | 500 to 5000
4 | CCCN(C)C(=O)OCc1c(-c2ccc(N3C[C@@H](CC(=O)O)CC(F)(F)C3)c(C)n2)nnn1C [Example 139, (S)-2-(5,5-difluoro-1-(2-methyl-6-(1-methyl-5-(((methyl(propyl)carbamoyl)oxy)methyl)-1H-1,2,3-triazol-4-yl)pyridin-3-yl)piperidin-3-yl)acetic acid] | 100 to 500
5 | CCc1nc(-c2nnn(C)c2Cn2cc(C(C)C)ccc2=O)ccc1N1C[C@@H](CC(=O)O)CC(F)(F)C1 [Example 16, (S)-2-(1-(2-ethyl-6-(5-((5-isopropyl-2-oxopyridin-1(2H)-yl)methyl)-1-methyl-1H-1,2,3-triazol-4-yl)pyridin-3-yl)-5,5-difluoropiperidin-3-yl)acetic acid] | < 100
6 | CCCc1ccc(=O)n(Cc2c(-c3ccc(N4C[C@H](CC(=O)O)CC(F)(F)C4)c(CC)n3)nnn2C)c1 [Example 7, (R)-2-(1-(2-ethyl-6-(1-methyl-5-((2-oxo-5-propylpyridin-1(2H)-yl)methyl)-1H-1,2,3-triazol-4-yl)pyridin-3-yl)-5,5-difluoropiperidin-3-yl)acetic acid] | 500 to 5000
7 | CCCc1ccc(=O)n(Cc2c(-c3cnc(N4CCCC(CC(=O)O)C4)cn3)nnn2C)c1 (stereo not shown) [Example 57, 2-(1-(5-(1-methyl-5-((2-oxo-5-propylpyridin-1(2H)-yl)methyl)-1H-1,2,3-triazol-4-yl)pyrazin-2-yl)piperidin-3-yl)acetic acid] | > 5000
8 | CCCN(C)C(=O)OCc1c(-c2ccc(CN3CCOC(C(=O)O)C3)c(C)n2)nnn1C (stereo not shown) [Example 166, 4-((2-methyl-6-(1-methyl-5-(((methyl (propyl)carbamoyl)oxy)methyl)-1H-1,2,3-triazol-4-yl)pyridin-3-yl)methyl)morpholine-2-carboxylic acid] | > 5000
9 | CCCc1ccc(=O)n(Cc2c(-c3ncc(CN4CC(C(=O)O)CC(F)(F)C4)c(CC)n3)cnn2C)c1 (single isomer, unassigned) [Example 160, (S) or (R)-1-((4-ethyl-2-(1-methyl-5-((2-oxo-5-propylpyridin-1(2H)-yl)methyl)-1H-pyrazol-4-yl)pyrimidin-5-yl)methyl)-5,5-difluoropiperidine-3-carboxylic acid] | 500 to 5000
10 | Cc1nc(-c2nnn(C)c2CN2C[C@H](CC3CC3)N(C)C2=O)ccc1N1C[C@H](CC(=O)O)CC(F)(F)C1 [Example 64, 2-((R)-1-(6-(5-(((S)-4-(cyclopropylmethyl)-3-methyl-2-oxoimidazolidin-1-yl)methyl)-1-methyl-1H-1,2,3-triazol-4-yl)-2-methylpyridin-3-yl)-5,5-difluoropiperidin-3-yl)acetic acid] | 500 to 5000
11 | CCc1nc(-c2nnn(C)c2CN2C[C@H](CC3CC3)N(C)C2=O)ccc1N1C[C@@H](CC(=O)O)CC(F)(F)C1 [Example 61, 2-((S)-1-(6-(5-(((S)-4-(cyclopropylmethyl)-3-methyl-2-oxoimidazolidin-1-yl)methyl)-1-methyl-1H-1,2,3-triazol-4-yl)-2-ethylpyridin-3-yl)-5,5-difluoropiperidin-3-yl)acetic acid] | 500 to 5000
12 | Cc1nc(-c2nnn(C)c2CN2C[C@H](CC3CC3)N(C)C2=O)ccc1N1C[C@@H](CC(=O)O)CC(F)(F)C1 [Example 63, 2-((S)-1-(6-(5-(((S)-4-(cyclopropylmethyl)-3-methyl-2-oxoimidazolidin-1-yl)methyl)-1-methyl-1H-1,2,3-triazol-4-yl)-2-methylpyridin-3-yl)-5,5-difluoropiperidin-3-yl)acetic acid] | 100 to 500
13 | Cc1nc(-c2nnn(C)c2Cn2cc(CC3CC3)n(C)c2=O)ccc1N1C[C@@H](CC(=O)O)CC(F)(F)C1 [Example 67, (S)-2-(1-(6-(5-((4-(cyclopropylmethyl)-3-methyl-2-oxo-2,3-dihydro-1H-imidazol-1-yl)methyl)-1-methyl-1H-1,2,3-triazol-4-yl)-2-methylpyridin-3-yl)-5,5-difluoropiperidin-3-yl)acetic acid] | 100 to 500
14 | CCc1nc(-c2nnn(C)c2COc2cc(-n3ccnn3)ncn2)ccc1N1CCC[C@H](CC(=O)O)C1 [Example 97, 2-[(3R)-1-{2-ethyl-6-[1-methyl-5-({[6-(1H-1,2,3-triazol-1-yl)pyrimidin-4-yl]oxy}methyl)-1H-1,2,3-triazol-4-yl]pyridin-3-yl}piperidin-3-yl]acetic acid] | 100 to 500
15 | CCCc1cccnc1OCc1c(-c2ccc(N3CCC(CC(=O)O)C(F)(F)C3)c(C)n2)nnn1C (stereo not shown) [Example 113, 2-(3,3-difluoro-1-(2-methyl-6-(1-methyl-5-(((3-propylpyridin-2-yl)oxy)methyl)-1H-1,2,3-triazol-4-yl)pyridin-3-yl)piperidin-4-yl)acetic acid] | 500 to 5000
16 | CCCc1cc(C)c(=O)n(Cc2c(-c3ccc(N4C[C@@H](CC(=O)O)CC(F)(F)C4)c(C)n3)nnn2C)c1 [Example 1, (S)-2-(5,5-difluoro-1-(2-methyl-6-(1-methyl-5-((3-methyl-2-oxo-5-propylpyridin-1(2H)-yl)methyl)-1H-1,2,3-triazol-4-yl)pyridin-3-yl)piperidin-3-yl)acetic acid] | 500 to 5000

Results, then the compound that gave them:

Row | IC50 [nM] | SMILES
17 | < 100 | CCc1nc(-c2nnn(C)c2COc2nccc(C3CCC3)n2)ccc1N1C[C@@H](CC(=O)O)CC(F)(F)C1 [Example 79, (S)-2-(1-(6-(5-(((4-cyclobutylpyrimidin-2-yl)oxy)methyl)-1-methyl-1H-1,2,3-triazol-4-yl)-2-ethylpyridin-3-yl)-5,5-difluoropiperidin-3-yl)acetic acid]
18 | > 5000 | CCCn1ccc(=O)c(OCc2c(-c3ccc(N4C[C@@H](CC(=O)O)CC(F)(F)C4)c(CC)n3)nnn2C)n1 [Example 111, (S)-2-(1-(2-ethyl-6-(1-methyl-5-(((4-oxo-1-propyl-1,4-dihydropyridazin-3-yl)oxy)methyl)-1H-1,2,3-triazol-4-yl)pyridin-3-yl)-5,5-difluoropiperidin-3-yl)acetic acid]
19 | < 100 | CCc1nc(-c2nnn(C)c2Cn2ncc(CC3CC3)n2)ccc1N1C[C@@H](CC(=O)O)CC(F)(F)C1 [Example 130, (S)-2-(1-(6-(5-((4-(cyclopropylmethyl)-2H-1,2,3-triazol-2-yl)methyl)-1-methyl-1H-1,2,3-triazol-4-yl)-2-ethylpyridin-3-yl)-5,5-difluoropiperidin-3-yl)acetic acid]
20 | 500 to 5000 | CCc1nc(-c2nnn(C)c2COc2nccc(C3CCC3)n2)ccc1CN1CC(C(=O)O)CC(F)(F)C1 (single isomer, unassigned) [Example 153, (R) or (S)-1-((6-(5-(((4-cyclobutylpyrimidin-2-yl)oxy)methyl)-1-methyl-1H-1,2,3-triazol-4-yl)-2-ethylpyridin-3-yl)methyl)-5,5-difluoropiperidine-3-carboxylic acid]
21 | 100 to 500 | CCc1nc(-c2nnn(C)c2Cn2nc(CC3CC3)ccc2=O)ccc1N1C[C@@H](CC(=O)O)CC(F)(F)C1 [Example 35, (S)-2-(1-(6-(5-((3-(cyclopropyImethyl)-6-oxopyridazin-1(6H)-yl)methyl)-1-methyl-1H-1,2,3-triazol-4-yl)-2-ethylpyridin-3-yl)-5,5-difluoropiperidin-3-yl)acetic acid]
22 | > 5000 | CCc1nc(-c2nnn(C)c2CNc2noc(C3CC3)n2)ccc1N1CC(CC(=O)O)CC(F)(F)C1 (stereo in doubt) [Example 115, (R)-2-(1-(6-(5-(((5-cyclopropyl-1,2,4-oxadiazol-3-yl)amino)methyl)-1-methyl-1H-1,2,3-triazol-4-yl)-2-ethylpyridin-3-yl)-5,5-difluoropiperidin-3-yl)acetic acid]
23 | < 100 | CCc1nc(-c2cnn(C)c2COc2nccc(C3CCC3)n2)ncc1N1C[C@@H](CC(=O)O)CC(F)(F)C1 [Example 87, (S)-2-(1-(2-(5-(((4-cyclobutylpyrimidin-2-yl)oxy)methyl)-1-methyl-1H-pyrazol-4-yl)-4-ethylpyrimidin-5-yl)-5,5-difluoropiperidin-3-yl)acetic acid]
24 | < 100 | CCc1nc(-c2nnn(C)c2COc2ncnc(C3CCC3)n2)ccc1N1CCC[C@H](CC(=O)O)C1 [Example 95, (R)-2-(1-(6-(5-(((4-cyclobutyl-1,3,5-triazin-2-yl)oxy)methyl)-1-methyl-1H-1,2,3-triazol-4-yl)-2-ethylpyridin-3-yl)piperidin-3-yl)acetic acid]
25 | 500 to 5000 | CCc1nc(-c2nnn(C)c2CNc2noc(C3CCC3)n2)ccc1N1C[C@@H](CC(=O)O)CC(F)(F)C1 [Example 120, (S)-2-(1-(6-(5-(((5-cyclobutyl-1,2,4-oxadiazol-3-yl)amino)methyl)-1-methyl-1H-1,2,3-triazol-4-yl)-2-ethylpyridin-3-yl)-5,5-difluoropiperidin-3-yl)acetic acid]
